Experimental data taken from the NIST ThermoML archive (doi:10.1021/acs.jced.7b00665).
Numbers after ± are expanded uncertainties.

Columns and labels:
[1] = Crystal; DTA
[2] = Molar enthalpy of transition or fusion; conditions: Crystal; DSC

Normal melting temperature [1]: 32.47 ± 0.61 °C | Molar enthalpy of transition or fusion [2]: 3.28 ± 0.287 kcal/mol
Structure (SMILES): OC/C=C/c1ccccc1 [trans-cinnamyl alcohol]
